From the supplement of paper PMC11451515

System: P12-Ichikawa
Experiment: cell viability relative to DMSO control; higher = less cytotoxic
Conditions: 48 h
Summary of the method: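 Library compounds in DMSO were pin-dosed into 1536-well plates (5 μl) holding NOMO1 or SEM (500 cells/well) or P12-Ichikawa (1000 cells/well) leukemia cells, across an 11-point threefold series of 47 μM to 0.79 nM. Each cell line had been adapted for at least four passages in each medium. CellTiter-Glo One luminescence was read after 48 h at 37°C. Viability is the per-plate percentage relative to DMSO wells, with cell-free wells as background.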

[1] = HPLM + 10% dialyzed FBS, 0.000781 µM
[2] = HPLM + 10% dialyzed FBS, 0.00234 µM
[3] = HPLM + 10% dialyzed FBS, 0.00702 µM
[4] = HPLM + 10% dialyzed FBS, 0.0211 µM
[5] = HPLM + 10% dialyzed FBS, 0.0632 µM
[6] = HPLM + 10% dialyzed FBS, 0.19 µM
[7] = HPLM + 10% dialyzed FBS, 0.569 µM
[8] = HPLM + 10% dialyzed FBS, 1.71 µM
[9] = HPLM + 10% dialyzed FBS, 5.12 µM
[10] = HPLM + 10% dialyzed FBS, 15.4 µM
[11] = HPLM + 10% dialyzed FBS, 46.1 µM
[12] = RPMI 5 mM glucose + 10% FBS, 0.000781 µM
[13] = RPMI 5 mM glucose + 10% FBS, 0.00234 µM
[14] = RPMI 5 mM glucose + 10% FBS, 0.00702 µM
[15] = RPMI 5 mM glucose + 10% FBS, 0.0211 µM
[16] = RPMI 5 mM glucose + 10% FBS, 0.0632 µM
[17] = RPMI 5 mM glucose + 10% FBS, 0.19 µM
[18] = RPMI 5 mM glucose + 10% FBS, 0.569 µM
[19] = RPMI 5 mM glucose + 10% FBS, 1.71 µM
[20] = RPMI 5 mM glucose + 10% FBS, 5.12 µM
[21] = RPMI 5 mM glucose + 10% FBS, 15.4 µM
[22] = RPMI 5 mM glucose + 10% FBS, 46.1 µM
[23] = RPMI 5 mM glucose + 10% dialyzed FBS, 0.000781 µM
[24] = RPMI 5 mM glucose + 10% dialyzed FBS, 0.00234 µM
[25] = RPMI 5 mM glucose + 10% dialyzed FBS, 0.00702 µM
[26] = RPMI 5 mM glucose + 10% dialyzed FBS, 0.0211 µM
[27] = RPMI 5 mM glucose + 10% dialyzed FBS, 0.0632 µM
[28] = RPMI 5 mM glucose + 10% dialyzed FBS, 0.19 µM
[29] = RPMI 5 mM glucose + 10% dialyzed FBS, 0.569 µM
[30] = RPMI 5 mM glucose + 10% dialyzed FBS, 1.71 µM
[31] = RPMI 5 mM glucose + 10% dialyzed FBS, 5.12 µM
[32] = RPMI 5 mM glucose + 10% dialyzed FBS, 15.4 µM
[33] = RPMI 5 mM glucose + 10% dialyzed FBS, 46.1 µM

SMILES | cell viability [1] | cell viability [2] | cell viability [3] | cell viability [4] | cell viability [5] | cell viability [6] | cell viability [7] | cell viability [8] | cell viability [9] | cell viability [10] | cell viability [11] | cell viability [12] | cell viability [13] | cell viability [14] | cell viability [15] | cell viability [16] | cell viability [17] | cell viability [18] | cell viability [19] | cell viability [20] | cell viability [21] | cell viability [22] | cell viability [23] | cell viability [24] | cell viability [25] | cell viability [26] | cell viability [27] | cell viability [28] | cell viability [29] | cell viability [30] | cell viability [31] | cell viability [32] | cell viability [33]
COc1cc(CNC(=O)CCCC/C=C/C(C)C)ccc1O | 108% | 99.4% | 106% | 102% | 102% | 101% | 13.3% | 11% | 11% | 12.3% | 14.1% | 104% | 105% | 109% | 106% | 104% | 119% | 95.2% | 12.2% | 12.2% | 10.1% | 10.5% | 111% | 103% | 106% | 108% | 116% | 112% | 32.9% | 21.3% | 22.2% | 14.3% | 15.7%
C#CCN[C@@H]1CCc2ccccc21.CS(=O)(=O)O | 105% | 100% | 91% | 105% | 103% | 95% | 98.2% | 100% | 91.2% | 93.5% | 86.4% | 97.6% | 93.6% | 90.5% | 95.2% | 101% | 103% | 93.7% | 85.6% | 95.9% | 92.9% | 84.2% | 89.5% | 91.9% | 94.9% | 88.8% | 101% | 99.1% | 97% | 85.5% | 83.6% | 83.7% | 83.5%
Cc1noc(-c2ccc(CSCCC(=O)O)cc2)c1NC(=O)OC(C)c1ccccc1Cl (centres undefined) | 98.3% | 99.3% | 97.1% | 102% | 95.4% | 101% | 101% | 107% | 99% | 88.6% | 70.2% | 88.3% | 89.1% | 80.9% | 87.4% | 86.4% | 95.7% | 97.3% | 94.7% | 93.1% | 87.3% | 85.3% | 90.3% | 90% | 91.7% | 96.7% | 91.6% | 102% | 84.8% | 89.1% | 97.9% | 89.3% | 79.5%
Cc1ncc([N+](=O)[O-])n1CC(C)O (centres undefined) | 105% | 116% | 111% | 110% | 105% | 117% | 114% | 111% | 116% | 125% | 103% | 94.3% | 109% | 101% | 104% | 90.4% | 113% | 105% | 115% | 104% | 106% | 102% | 102% | 112% | 106% | 104% | 95.2% | 112% | 117% | 113% | 111% | 106% | 106%
NC(=O)c1ncn([C@@H]2O[C@H](CO)[C@@H](O)[C@H]2O)c1O |  |  |  |  |  |  |  |  |  |  |  | 129% | 123% | 119% | 130% | 124% | 126% | 133% | 123% | 111% | 117% | 108% | 118% | 126% | 113% | 123% | 122% | 121% | 123% | 122% | 109% | 110% | 104%
O=c1[nH]c(=O)n(C2CCCO2)cc1F (centres undefined) | 122% | 124% | 126% | 125% | 125% | 124% | 123% | 123% | 112% | 110% | 116% |  |  |  |  |  |  |  |  |  |  |  | 88.6% | 126% | 120% | 128% | 130% | 120% | 122% | 121% | 119% | 108% | 115%
COc1cc(O)c2c(c1)C(=O)c1cc(C)cc(O)c1C2=O | 124% | 120% | 122% | 118% | 122% | 119% | 112% | 114% | 110% | 98.9% | 41.7% | 121% | 118% | 121% | 119% | 121% | 116% | 113% | 113% | 120% | 97.6% | 45.2% |  |  |  |  |  |  |  |  |  |  | 
Cn1cc(C[C@@H](N)C(=O)O)c2ccccc21 | 103% | 109% | 106% | 104% | 105% | 109% | 105% | 102% | 100% | 98.2% | 97.2% | 98.8% | 107% | 104% | 101% | 99.6% | 106% | 107% | 97.1% | 99.8% | 100% | 87.1% | 91.3% | 101% | 100% | 98.3% | 105% | 106% | 96.5% | 100% | 95.8% | 93% | 91.9%
COc1cc(N2CCC(N(C)C)CC2)ccc1Nc1ncc(Cl)c(Nc2ccccc2P(C)(C)=O)n1 | 110% | 115% | 110% | 113% | 117% | 115% | 87.9% | 40.5% | 13.6% | 18.3% | 30.7% | 112% | 118% | 123% | 122% | 121% | 104% | 102% | 82.2% | 11.9% | 12.5% | 23.6% | 111% | 113% | 117% | 124% | 126% | 127% | 107% | 106% | 30.8% | 19.3% | 31.5%
Cc1nc(Nc2n[nH]c3c2CN(C(=O)N[C@H](CN(C)C)c2ccccc2)C3(C)C)c2sccc2n1 | 84.9% | 84.7% | 76.4% | 81% | 75.1% | 73.5% | 72.6% | 53.9% | 52.3% | 45.4% | 15.6% | 82.3% | 81.7% | 70.8% | 60% | 62.3% | 59.3% | 53.4% | 38.5% | 41.4% | 27.7% | 12.8% | 80% | 81.4% | 77.2% | 72.1% | 63.6% | 56% | 51.4% | 40.6% | 38.8% | 32.3% | 15.8%
O=C(Nc1cccnn1)N1CCC(=Cc2cccc(Oc3ccc(C(F)(F)F)cn3)c2)CC1 | 92.9% | 94.1% | 91.4% | 11.9% | 106% | 103% | 101% | 101% | 102% | 94.4% | 87.4% | 85% | 86.8% | 96% | 12.6% | 101% | 103% | 99.7% | 103% | 95.7% | 80.3% | 76.8% | 92% | 93.9% | 101% | 47.1% | 110% | 100% | 102% | 105% | 101% | 90.3% | 81.5%
CC(NCCc1ccc(O)cc1)C(O)c1ccc(O)cc1 (centres undefined) | 106% | 109% | 116% | 113% | 117% | 112% | 111% | 103% | 109% | 106% | 100% | 114% | 120% | 122% | 115% | 110% | 114% | 125% | 116% | 120% | 99% | 111% | 107% | 105% | 113% | 109% | 115% | 111% | 107% | 105% | 102% | 97% | 90.6%
O.O.CCN1CCN(C(=O)N[C@H](C(=O)N[C@H]2[C@@H]3SC\C(=C(/N3C2=O)C(O)=O)CSC4=NN=N[N]4C)C5=CC=C(O)C=C5)C(=O)C1=O | 92.1% | 102% | 103% | 11.8% | 105% | 103% | 112% | 95.9% | 106% | 108% | 108% | 86.8% | 99.4% | 90.8% | 12.4% | 103% | 100% | 112% | 96.9% | 98.7% | 99.6% | 105% | 84.8% | 88% | 98.1% | 22.6% | 102% | 101% | 93.3% | 97.4% | 97.7% | 102% | 99.5%
C[C@@H](O)[C@@H]1NC(=O)[C@H](CCCCN)NC(=O)[C@@H](Cc2c[nH]c3ccccc23)NC(=O)[C@H](Cc2ccccc2)NC(=O)[C@@H](NC(=O)[C@H](N)Cc2ccccc2)CSSC[C@@H](C(=O)N[C@H](CO)[C@@H](C)O)NC1=O | 84.1% | 94.4% | 88.9% | 90.5% | 91.7% | 94.1% | 91.3% | 95.8% | 89.4% | 92% | 95% | 76.4% | 85.1% | 83% | 87.2% | 81.7% | 81.3% | 83% | 83.8% | 86.4% | 78.8% | 81% | 83% | 80.8% | 85.7% | 82.6% | 84.9% | 79.8% | 80.1% | 84.7% | 79.8% | 79.9% | 79.7%
